This is an account of results in patent publication US20250296922A1, “POLYSUBSTITUTED PYRROLIDINE DERIVATIVE, PREPARATION METHOD THEREFOR AND USE THEREOF” (SHANGHAI WENNAI THERAPEUTICS CO LTD, priority 2023, published 2025).

Data set [1] can be described thus: Pharmacokinetic experiment, dog test, intravenous injection. The class given is in vivo. Particulars: male Beagle, 0.5 mg/kg. From the text:
4.2.1 Abstract: Beagle was used as the test animal, the LC/MS/MS method was applied to determine the drug concentration in the plasma of Beagle at different points after intravenous injection of the compounds of the examples, to study the pharmacokinetic behavior of the compounds of the present invention in the Beagle, and to evaluate their pharmacokinetic characteristics.
4.2.2.2 Test animals: 4 male Beagles, provided by Jiangsu LingfuZhaoshengyuan Biotechnology Co. Fasting started at 5 p.m. on the day before drug administration, and the duration of fasting was no less than 12 hours, and food was resumed 4 hours after drug administration.
4.2.2.3 Drug Preparation: Weighed an amount of the test compound and prepared a completely clear solution with a final concentration of 1 mg/mL using a mixed solvent of DMSO: Solutol: Saline (5%: 5%: 90%).
4.2.2.4 Administration: a dose of 0.5 mg/kg, a volume of 0.5 mL/kg.
4.2.3 Test operation: 0.4 mL of blood samples were collected from the forelimb vein of male Beagles before and 5 min, 15 min, 30 min, 1 h, 2h, 4 h, 6h, 8 h, 10 h and 24 h after intravenous administration and placed in EDTA-K2 anticoagulant tubes. After blood samples were collected, they were placed in labelled centrifuge tubes in ice water bath and rapidly centrifuged to separate the plasma. Centrifugation conditions: 4000 rpm, 10 min, 4° C., and the plasma was placed at −70° C. or below for measurement.
Plasma samples were thawed at room temperature and 50 μL was added to 400 μL of acetonitrile containing the internal standard (40 ng/mL, terfenadine), vortexed for 1 min and then centrifuged at 15400 g for 10 min at 4° C. The supernatant was diluted 10-fold with 80% acetonitrile in water and 1 μL sample was injected for analysis.

Data set [2] is described as follows: Proportion of free drug in human plasma, equilibrium dialysis. It is filed as in vitro ADME. Particulars: 2 μM compound, dialysis 4 h, 37° C. On the procedure: On the day of the experiment, human plasma samples (purchased from Biomex) were thawed under running tap water and centrifuged at 3220 g for 5 min to remove blood clots. The pH of the resulting plasma was measured and adjusted to pH 7.4+0.1 by using 1% phosphoric acid or 1 N sodium hydroxide as required.
Pretreating the dialysis membranes according to the manufacturer's instructions: The dialysis membrane strips were soaked in ultrapure water at room temperature for approximately 1 hour. Afterwards, each membrane strip containing 2 layers of membrane was separated and soaked in ethanol: water (20:80 v: v) for approximately 20 minutes, then it was ready for use or stored at 2-8° C. (stored for up to 1 month). The membranes were rinsed and soaked in ultrapure water for 20 min before experiments.
A 10 mM DMSO solution of test compound or control warfarin was taken and diluted to 400 μM with DMSO, then 3 μl was taken and added to 597 μl of blank plasma matrix solution to obtain 2 μM of compound solution respectively. 50 μl of test compound solution or control solution was transferred to a sample collection plate with 3 replicate wells per sample. […]
Unbonded %, bonded % and recovered % were calculated using the following formulae. […]

Data set [3] is described as follows: Stability of the compound in liver microsomes (rat). The class given is in vitro ADME, SD rat. To be noted: 1 μM compound, 0.5 mg protein/mL. On the procedure:
2.1.1. working solution: 5 μL of test or control compound stock solution (10 mM DMSO solution) was diluted with 495 μL of acetonitrile (ACN) to obtain an intermediate stock solution (100 μM, 99% ACN).
2.2.2 Preparation procedure: An appropriate amount of NADPH powder was weighed and diluted with 10 mM MgCl2 buffer (working solution concentration: 10 mM; final reaction system concentration: 1 mM).
2.3.2 Preparation procedure: The appropriate concentration of liver microsomal working solution was prepared in 100 mM potassium phosphate buffer;
Acetonitrile (ACN) solution at 4° C. containing 200 ng/mL of Tolbutamide and 200 ng/ml of labetalol as internal standards 2.5. Operation steps:
2.5.2. Diluting liver microsomes with 100 mM potassium phosphate buffer to a concentration of 0.56 mg/mL.
2.5.3. Transferring 445 μL of liver microsomal working solution (0.56 mg/mL) to pre-heated incubation plates T60 and NCF60, and then pre-heating the incubation plates T60 and NCF60 for 10 minutes at 37° C. with shaking. Transferring 54 μL of liver microsomes to each well of the blank plate, adding 6 μL of NAPDH coenzyme solution to the blank plate, and finally transferring 180 μL of termination solution to the blank plate.
2.5.4 Adding 5 μL of compound working solution (100 μM) to the incubation plates T60 and NCF60 containing liver microsomes and mixing three times.
2.5.5. Adding 50 μL of buffer to the NCF60 plate and mixing three times, starting the timer and incubating at 37° C. for 60 min with the plate shaking.
2.5.6. Adding 180 μL of quenching solution and 6 μL of NAPDH coenzyme working solution sequentially to quenching plate TO, making sure that the plate was cold to prevent volatilization of the incubation solution.
2.5.7. For plate T60, mixing well three times and immediately transferring 54 μL of mixing solution (0-min time point) to quenching plate TO, then adding 44 μL of NAPDH coenzyme working solution to incubation plate T60. Starting the timer:
2.5.8. At the 5, 15, 30, 45 and 60 minute time points, adding 180 μL of quenching solution to the quenching plate and transferring 60 μL of reaction solution from the T60 plate to the quenching plate at each time point.
2.5.9. For NCF60 plates, mixing well and transferring 60 μL of reaction solution from the NCF60 incubating solution to a quenching plate containing 180 μL of quenching solution at 60th minute.
2.5.10. All plates were mixed on a shaker for 10 min and then centrifuged at 4000 rpm at 4° C. for 20 min.
2.5.11. Transferring 80 μL of supernatant to 240 μL of HPLC water and mixing on a
2.6.1. Calculating t1/2 and Clint (mic) values based on first-order elimination kinetics: […]

Turning to “4-((2R,3S,4S,5R)-3-(3,4-difluoro-2-(methoxy-d3)phenyl)-4,5-dimethyl-5-(trifluoromethyl) pyrrolidine-2-carboxamido)pyridinamide [Compound 11]”, in data set [1], the “Area under the curve AUC0-t” value turned out to be 15644 ng·h/mL, the “Clearance CL” value was 0.134 mL/min/kg and the “half-life t½” value is recorded as 57.4 h. In addition, the “free drug proportion of in human plasma” value in data set [2] is recorded as 1.6%.
Turning to `COc1c([C@H]2[C@H](C(=O)Nc3ccnc(C(N)=O)c3)O[C@@](C)(C(F)(F)F)[C@H]2C)ccc(F)c1F` [VX-548, reference compound], the half-life at 1 μM in data set [3] (Sprague-Dawley, rat, liver microsomes, 37° C., read-out: Rat liver microsomes T½) was 0.278 h. In addition, the “Rat liver microsomes Residual (T = 60 min)” value in data set [3] (T = 60 min) worked out at 8.5%. Also, the AUC(0-t) in data set [1] (dog, plasma, read-out: Area under the curve AUC0-t) was 11100 ng·h/mL. The clearance in data set [1] (dog, plasma, read-out: Clearance CL (converted)) is 0.438 mL/min/kg. Moreover, in data set [1] (dog, plasma, read-out: half-life t½ (converted)), the half-life is 19.7 h. The “free drug proportion of in human plasma” value in data set [2] amounted to 1.0%.
